Source: ChEMBL document CHEMBL5241116, “Isolation of Fluorescent Benzoxazines with Neuroprotective Activity from the Olive Weevil Pimelocerus perforatus” (J Nat Prod, 2022)
Activity calls are given as the source filed them. No cut-off for these calls is given here.

Tests used:
[1] = Neurotoxicity in human SH-SY5Y cells assessed as reduction in cell viability at 50 uM by WST-8 assay; assay type: toxicity, cell-based
SH-SY5Y = assay: Neuroprotective activity against H2O2-induced cell death in human SH-SY5Y cells pretreated with compound followed by H2O2 stimulation and measured after 24 hrs by WST-8 assay; assay type: functional, cell-based

| SMILES | Activity [1] | Activity (SH-SY5Y) |
| --- | --- | --- |
| O=C1C=C2Nc3ccc(CCO)cc3O[C@]23CCO[C@@]1(O)C3 (racemic) | Non-Toxic | Active |
| O=C1C=C2Nc3cc(CCO)ccc3O[C@]23CCO[C@@]1(O)C3 (racemic) | Non-Toxic | Active |
| Cc1c(C)c2c(c(C)c1O)CCC(C)(C(=O)O)O2 (configuration not stated) |  | Active |
| OCCc1ccc(O)c(O)c1 [HYDROXYTYROSOL] | Non-Toxic | Active |
